Data set [1] addresses recombinant human NF-kappaB-inducing kinase (NIK/MAP3K14) (Homo sapiens, UniProt Q99558). The data set can be described thus: Biological Assay B: inhibition of auto-phosphorylation of recombinant human NIK/MAP3K14 (AlphaScreen), performed at 2 locations. The data set is classed as biochemical. The settings on record: location 1; NIK auto-phosphorylation, AlphaScreen; averaged values; read-out: Assay B location 1 IC50. The method, boiled down:
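GST-tagged NIK (0.2 nM) auto-phosphorylation with 25 microM ATP in 50 mM Tris pH 7.5, 5 mM MgCl2, 1% DMSO, 1 h at 25° C. Anti-phospho-IKK Ser176/180 AlphaScreen readout; blank-subtracted IC50 from sigmoidal fit. Run at two sites.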

The subject of data set [2] is P-IKKα levels in L363 (NIK translocated multiple myeloma) cells. As to the kind of experiment: Biological Assay C: effect of compounds on P-IKKα levels in L363 (NIK translocated multiple myeloma) cells, performed at 2 locations. The format is cell-based, human. The settings on record: location 1; P-IKKα levels in L363 cells, 2 hr treatment; averaged values; read-out: Assay C location 1 IC50. The method, boiled down:
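Human L363 cells were primed 24 h with recombinant human BAFF, then treated 2 h with compound (8-point 1:3 dilutions, 1% DMSO) at 37 °C. IC50 came from a sigmoidal fit of % inhibition versus log concentration, determined at two sites.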

Molecules are shown by their SMILES.

Usually melting point stands for the temperature, or range, at which the solid turns liquid. Usually IC50 stands for the midpoint of a concentration-inhibition curve.

recombinant human NF-kappaB-inducing kinase (NIK/MAP3K14), sequence (Q99558 whole entry): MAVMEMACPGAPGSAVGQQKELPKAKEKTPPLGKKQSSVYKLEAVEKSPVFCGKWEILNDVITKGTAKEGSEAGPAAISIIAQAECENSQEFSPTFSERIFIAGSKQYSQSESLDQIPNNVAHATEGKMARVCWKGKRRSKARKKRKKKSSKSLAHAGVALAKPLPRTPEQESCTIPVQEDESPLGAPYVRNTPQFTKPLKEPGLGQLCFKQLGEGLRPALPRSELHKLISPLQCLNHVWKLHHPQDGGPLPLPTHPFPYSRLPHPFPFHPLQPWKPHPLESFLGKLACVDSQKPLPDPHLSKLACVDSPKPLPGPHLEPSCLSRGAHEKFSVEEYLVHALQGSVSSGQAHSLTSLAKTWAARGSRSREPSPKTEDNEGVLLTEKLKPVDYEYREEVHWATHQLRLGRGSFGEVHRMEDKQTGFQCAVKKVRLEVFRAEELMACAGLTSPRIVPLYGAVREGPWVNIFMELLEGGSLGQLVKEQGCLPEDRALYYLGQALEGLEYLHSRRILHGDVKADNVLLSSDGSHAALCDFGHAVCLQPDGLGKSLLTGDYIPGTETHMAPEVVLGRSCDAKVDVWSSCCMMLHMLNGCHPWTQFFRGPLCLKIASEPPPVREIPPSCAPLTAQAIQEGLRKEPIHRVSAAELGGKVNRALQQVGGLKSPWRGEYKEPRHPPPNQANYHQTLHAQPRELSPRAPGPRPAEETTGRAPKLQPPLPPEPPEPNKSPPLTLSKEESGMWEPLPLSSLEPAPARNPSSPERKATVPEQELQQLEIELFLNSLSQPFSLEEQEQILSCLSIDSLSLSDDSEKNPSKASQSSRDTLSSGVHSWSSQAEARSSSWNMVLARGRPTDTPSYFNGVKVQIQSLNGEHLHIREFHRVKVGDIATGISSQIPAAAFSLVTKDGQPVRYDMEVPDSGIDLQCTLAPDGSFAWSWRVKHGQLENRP

In turn, `COc1cc(N2CC3(CCOCC3)C2)c(Cl)cc1Nc1ncc(Cl)c(-c2cnc3c(c2)C(C)(CO)CN3)n1` (single isomer, unassigned) [Compound 347] came in with a melting point of over 250 °C. Moreover, the IC50 in data set [1] was 144 nM.
Compound `COc1cc(N2CCC(O)CC2)c(Cl)cc1Nc1nccc(-c2cnc3c(c2)C(C)(CO)CN3)n1` (single isomer, unassigned) [Compound 16] yielded a melting point of over 260 °C. Besides, in data set [2], the IC50 came out at 19.1 nM. For the same compound, the 50% inhibitory concentration (IC50) in data set [1] amounted to 3.2 nM.
Regarding `COc1ccc(Cl)cc1Nc1nccc(-c2cnc3c(c2)C(C)(C)CN3)n1` [Compound 353], the melting point was 210 °C. In addition, in data set [1], the IC50 is 72.4 nM.

For the origin of these results see patent US11236084B2, “Substituted azaindoline derivatives as NIK inhibitors” (Janssen Pharmaceutica NV, priority 2017, dated 2022).
